Source: patent publication US11578009B2, “Urea-based blend composition and method for the manufacture thereof” (YARA INTERNATIONAL ASA, priority 2018, dated 2023)

Legend:
[1] = nBTPT stability on YaraVera Amidas (UAS) during storage, HPLC analysis of nBTPT content; format: physicochemical; conditions: for Stabilizing effect on nBTPT on UAS: Experiment 4, MgSO4/MgO combinations, FIG. 4
Protocol: For lab scale experiments, 1.2 kg of solid fertilizer material was added to a lab scale drum. […] A residence time of 10 minutes was applied and the rotating speed of the drum was consequently the same in each experiment. […] Before use, the moisture-repellent coating was preheated to 80° C. Larger scale experiments with amounts up to 40 kg of fertilizer material were performed in a concrete mixer. The samples were stored under several conditions, dependent on the type of samples: • Bagged at room temperature (18-25° C.) • Bagged at 40° C. • Open to air at room temperature (18-25° C.) 3.

pH of MgSO4 grades = format: physicochemical; conditions: MgSO4 grade

SMILES | Stabilizing effect on nBTPT on UAS ([1]; 462 ppm nBTPT) | pH (pH of MgSO4 grades) | also measured
[O]=[Mg] [MgO, magnesium oxide, reference compound] | more effective than CaO |  | 
O=S(=O)([O-])[O-].[Mg+2] [MgSO4 99.5%] |  | 8.5 | 
O=S(=O)([O-])[O-].[Mg+2] [MgSO4 99.999%] |  | 6.1 | 
O=S(=O)([O-])[O-].[Mg+2] [MgSO4, magnesium sulphate] | little effect |  | Stabilizing effect on nBTPT in the presence of UAS ([1]; Experiment 2, open to air at room temperature 40 days (FIG. 2A) and in bags at 40° C. 8 days (FIG. 2B), 462 ppm nBTPT): comparable with the effect of the prior art compound (CaO); Stabilizing effect at more than 1 weight % of magnesium sulphate ([1]; more than 1 weight % in the composition): did not produce a proportionally better stabilizing effect
O=S(=O)([O-])[O-].[Na+].[Na+] [Na2SO4, reference compound] |  |  | Stability of nBTPT on YaraVera Amidas product ([1]; Experiment 3, open plastic containers at room temperature for 21 days, 462 ppm nBTPT, FIG. 3): negative effect
